In ChEMBL document CHEMBL4507264, “Data for DCP probe BAY-7598” (2021):

Experiments:
[1] = target: Aurora kinase C (Homo sapiens) (UniProt Q9UQB9); details: Compound concentration 1000.0 nM
[2] = target: Cyclin-dependent kinase 11B (Homo sapiens) (UniProt P21127); details: Compound concentration 1000.0 nM
[3] = target: Death-associated protein kinase 2 (Homo sapiens) (UniProt Q9UIK4); details: Compound concentration 1000.0 nM
[4] = test system: Phosphatidylinositol 4,5-bisphosphate 3-kinase catalytic subunit alpha isoform (Homo sapiens), P42336 [E542K]; details: Compound concentration 1000.0 nM
[5] = target: Cyclin-dependent kinase-like 1 (Homo sapiens) (UniProt Q00532); details: Compound concentration 1000.0 nM
Cyclin-dependent kinase-like 1 (Homo sapiens), sequence (Q00532 whole entry): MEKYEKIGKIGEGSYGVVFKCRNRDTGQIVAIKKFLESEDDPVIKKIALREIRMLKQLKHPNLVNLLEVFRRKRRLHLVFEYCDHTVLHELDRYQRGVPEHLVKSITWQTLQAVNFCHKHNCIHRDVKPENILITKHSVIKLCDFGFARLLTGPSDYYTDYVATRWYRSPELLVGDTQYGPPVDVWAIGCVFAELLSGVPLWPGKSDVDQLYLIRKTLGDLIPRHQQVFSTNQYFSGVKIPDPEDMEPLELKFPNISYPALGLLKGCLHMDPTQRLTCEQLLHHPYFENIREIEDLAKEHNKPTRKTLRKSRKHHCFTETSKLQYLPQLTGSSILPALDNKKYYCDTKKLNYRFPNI

[6] = target: Serine/threonine-protein kinase TAO3 (Homo sapiens) (UniProt Q9H2K8); details: Compound concentration 1000.0 nM
[7] = target: 5-hydroxytryptamine receptor 1D (Homo sapiens) (UniProt P28221); details: Compound concentration 10.0 uM
[8] = target: Serine/threonine-protein kinase Nek6 (Homo sapiens) (UniProt Q9HC98); details: Compound concentration 1000.0 nM
Serine/threonine-protein kinase Nek6 (Homo sapiens), sequence (Q9HC98 whole entry): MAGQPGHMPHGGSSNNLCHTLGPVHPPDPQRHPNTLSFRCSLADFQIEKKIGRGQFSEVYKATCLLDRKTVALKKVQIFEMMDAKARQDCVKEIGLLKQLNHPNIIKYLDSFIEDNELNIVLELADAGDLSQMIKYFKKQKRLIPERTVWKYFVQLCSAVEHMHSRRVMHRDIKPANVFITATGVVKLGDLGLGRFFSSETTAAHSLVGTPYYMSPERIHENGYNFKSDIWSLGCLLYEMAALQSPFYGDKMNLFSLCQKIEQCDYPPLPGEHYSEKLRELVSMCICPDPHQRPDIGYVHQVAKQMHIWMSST

[9] = target: Serine/threonine-protein kinase WNK1 (Homo sapiens) (UniProt Q9H4A3); details: Compound concentration 1000.0 nM
[10] = target: Calcium/calmodulin-dependent protein kinase kinase 1 (Homo sapiens) (UniProt Q8N5S9); details: Compound concentration 1000.0 nM
[11] = target: Mitogen-activated protein kinase kinase kinase kinase 3 (Homo sapiens) (UniProt Q8IVH8); details: Compound concentration 1000.0 nM
[12] = target: Phosphorylase b kinase regulatory subunit alpha, liver isoform (Homo sapiens) (UniProt P46019); details: Compound concentration 1000.0 nM
[13] = target: Phosphatidylinositol 5-phosphate 4-kinase type-2 beta (Homo sapiens) (UniProt P78356); details: Compound concentration 1000.0 nM
Phosphatidylinositol 5-phosphate 4-kinase type-2 beta (Homo sapiens), sequence (P78356 whole entry): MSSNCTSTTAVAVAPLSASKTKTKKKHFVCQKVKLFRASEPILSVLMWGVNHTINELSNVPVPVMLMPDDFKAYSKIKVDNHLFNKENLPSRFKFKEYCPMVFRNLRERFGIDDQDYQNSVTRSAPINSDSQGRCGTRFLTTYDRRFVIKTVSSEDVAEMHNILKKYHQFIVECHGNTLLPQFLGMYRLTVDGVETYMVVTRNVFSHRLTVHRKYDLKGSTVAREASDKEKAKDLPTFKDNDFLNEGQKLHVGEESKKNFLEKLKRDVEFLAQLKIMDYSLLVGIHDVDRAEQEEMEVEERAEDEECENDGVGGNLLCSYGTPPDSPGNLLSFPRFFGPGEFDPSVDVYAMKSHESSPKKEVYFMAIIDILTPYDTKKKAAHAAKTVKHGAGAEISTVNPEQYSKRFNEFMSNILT

[14] = test system: Hepatocyte growth factor receptor (Homo sapiens), P08581 [M1250T]; details: Compound concentration 1000.0 nM
[15] = target: Calcium/calmodulin-dependent protein kinase type 1D (Homo sapiens) (UniProt Q8IU85); details: Compound concentration 1000.0 nM
Calcium/calmodulin-dependent protein kinase type 1D (Homo sapiens), sequence (Q8IU85 whole entry, looked up): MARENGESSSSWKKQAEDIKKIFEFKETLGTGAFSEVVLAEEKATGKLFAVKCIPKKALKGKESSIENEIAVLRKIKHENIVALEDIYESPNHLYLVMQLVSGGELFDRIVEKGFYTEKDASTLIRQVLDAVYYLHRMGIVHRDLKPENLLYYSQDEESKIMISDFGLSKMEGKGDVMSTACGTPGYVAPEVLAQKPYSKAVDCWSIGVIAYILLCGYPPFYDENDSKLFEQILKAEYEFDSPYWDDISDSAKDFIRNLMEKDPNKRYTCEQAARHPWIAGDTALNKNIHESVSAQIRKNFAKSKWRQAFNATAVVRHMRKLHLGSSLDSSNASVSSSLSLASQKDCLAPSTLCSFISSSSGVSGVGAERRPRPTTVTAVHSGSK

[16] = target: Serine/threonine-protein kinase PLK2 (Homo sapiens) (UniProt Q9NYY3); details: Compound concentration 1000.0 nM
[17] = test system: Epidermal growth factor receptor (Homo sapiens), P00533 [UNDEFINED MUTATION]; details: Compound concentration 1000.0 nM
[18] = test system: Receptor-type tyrosine-protein kinase FLT3 (Homo sapiens), P36888 [R834Q]; details: Compound concentration 1000.0 nM
[19] = target: Mitogen-activated protein kinase 4 (Homo sapiens) (UniProt P31152); details: Compound concentration 1000.0 nM
Mitogen-activated protein kinase 4 (Homo sapiens), sequence (P31152 whole entry): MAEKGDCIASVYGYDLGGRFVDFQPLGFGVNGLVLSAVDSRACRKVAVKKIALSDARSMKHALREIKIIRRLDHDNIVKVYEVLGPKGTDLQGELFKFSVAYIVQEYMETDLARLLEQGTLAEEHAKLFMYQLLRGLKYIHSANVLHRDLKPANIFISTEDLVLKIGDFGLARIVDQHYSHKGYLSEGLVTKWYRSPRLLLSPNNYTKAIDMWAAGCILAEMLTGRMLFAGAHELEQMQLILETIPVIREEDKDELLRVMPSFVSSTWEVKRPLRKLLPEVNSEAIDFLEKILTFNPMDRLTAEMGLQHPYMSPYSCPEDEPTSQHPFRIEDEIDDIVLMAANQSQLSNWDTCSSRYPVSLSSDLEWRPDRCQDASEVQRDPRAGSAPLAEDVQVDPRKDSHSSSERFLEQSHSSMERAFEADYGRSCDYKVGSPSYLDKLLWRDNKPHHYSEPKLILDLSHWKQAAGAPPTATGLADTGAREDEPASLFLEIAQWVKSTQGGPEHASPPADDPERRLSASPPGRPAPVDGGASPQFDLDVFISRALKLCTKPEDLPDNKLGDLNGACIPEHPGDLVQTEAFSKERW

[20] = target: Receptor-interacting serine/threonine-protein kinase 2 (Homo sapiens) (UniProt O43353); details: Compound concentration 1000.0 nM
[21] = test system: Serine/threonine-protein kinase B-raf (Homo sapiens), P15056 [V600E]; details: Compound concentration 1000.0 nM
[22] = target: D(1A) dopamine receptor (Homo sapiens) (UniProt P21728); details: Compound concentration 10.0 uM
D(1A) dopamine receptor (Homo sapiens), sequence (P21728 whole entry): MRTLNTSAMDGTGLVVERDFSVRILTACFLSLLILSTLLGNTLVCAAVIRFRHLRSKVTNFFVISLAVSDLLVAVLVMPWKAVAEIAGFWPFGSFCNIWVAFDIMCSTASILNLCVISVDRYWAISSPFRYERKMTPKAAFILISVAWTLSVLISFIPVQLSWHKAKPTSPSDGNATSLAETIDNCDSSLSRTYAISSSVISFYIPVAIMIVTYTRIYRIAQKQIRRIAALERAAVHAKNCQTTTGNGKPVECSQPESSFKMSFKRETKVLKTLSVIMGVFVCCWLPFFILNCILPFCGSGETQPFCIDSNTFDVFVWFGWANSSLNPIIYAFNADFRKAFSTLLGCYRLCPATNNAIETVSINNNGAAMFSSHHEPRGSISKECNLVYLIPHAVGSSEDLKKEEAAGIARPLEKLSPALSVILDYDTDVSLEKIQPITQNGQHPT

[23] = test system: Tyrosine-protein kinase ABL1 (Homo sapiens), P00519 [T315I]; details: Compound concentration 1000.0 nM
[24] = target: Dual specificity tyrosine-phosphorylation-regulated kinase 2 (Homo sapiens) (UniProt Q92630); details: Compound concentration 1000.0 nM
Dual specificity tyrosine-phosphorylation-regulated kinase 2 (Homo sapiens), sequence (Q92630 whole entry): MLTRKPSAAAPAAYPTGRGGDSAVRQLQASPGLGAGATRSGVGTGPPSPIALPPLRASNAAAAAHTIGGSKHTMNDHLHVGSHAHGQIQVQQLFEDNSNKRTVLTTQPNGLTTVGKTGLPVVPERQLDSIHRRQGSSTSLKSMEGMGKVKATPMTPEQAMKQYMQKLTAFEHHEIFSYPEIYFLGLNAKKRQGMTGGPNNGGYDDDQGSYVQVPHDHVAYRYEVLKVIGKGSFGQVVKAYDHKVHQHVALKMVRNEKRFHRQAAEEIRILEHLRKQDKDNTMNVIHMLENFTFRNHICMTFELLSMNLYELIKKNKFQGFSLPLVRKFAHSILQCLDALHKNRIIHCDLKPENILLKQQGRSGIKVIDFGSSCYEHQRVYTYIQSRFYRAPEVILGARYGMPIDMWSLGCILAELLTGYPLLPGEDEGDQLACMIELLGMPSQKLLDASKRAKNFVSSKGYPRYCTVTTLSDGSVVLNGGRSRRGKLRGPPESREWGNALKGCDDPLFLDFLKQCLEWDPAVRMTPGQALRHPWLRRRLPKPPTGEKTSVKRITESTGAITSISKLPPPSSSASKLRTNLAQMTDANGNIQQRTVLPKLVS

[25] = target: Mitogen-activated protein kinase kinase kinase 4 (Homo sapiens) (UniProt Q9Y6R4); details: Compound concentration 1000.0 nM
[26] = target: STE20-like serine/threonine-protein kinase (Homo sapiens) (UniProt Q9H2G2); details: Compound concentration 1000.0 nM
[27] = target: Ephrin type-B receptor 3 (Homo sapiens) (UniProt P54753); details: Compound concentration 1000.0 nM
[28] = target: Mitogen-activated protein kinase 1 (Homo sapiens) (UniProt P28482); details: Compound concentration 1000.0 nM
[29] = target: Serine/threonine-protein kinase TBK1 (Homo sapiens) (UniProt Q9UHD2); details: Compound concentration 1000.0 nM
[30] = target: Non-receptor tyrosine-protein kinase TNK1 (Homo sapiens) (UniProt Q13470); details: Compound concentration 1000.0 nM
[31] = target: Dual serine/threonine and tyrosine protein kinase (Homo sapiens) (UniProt Q6XUX3); details: Compound concentration 1000.0 nM
[32] = target: Homeodomain-interacting protein kinase 4 (Homo sapiens) (UniProt Q8NE63); details: Compound concentration 1000.0 nM
Homeodomain-interacting protein kinase 4 (Homo sapiens), sequence (Q8NE63 whole entry): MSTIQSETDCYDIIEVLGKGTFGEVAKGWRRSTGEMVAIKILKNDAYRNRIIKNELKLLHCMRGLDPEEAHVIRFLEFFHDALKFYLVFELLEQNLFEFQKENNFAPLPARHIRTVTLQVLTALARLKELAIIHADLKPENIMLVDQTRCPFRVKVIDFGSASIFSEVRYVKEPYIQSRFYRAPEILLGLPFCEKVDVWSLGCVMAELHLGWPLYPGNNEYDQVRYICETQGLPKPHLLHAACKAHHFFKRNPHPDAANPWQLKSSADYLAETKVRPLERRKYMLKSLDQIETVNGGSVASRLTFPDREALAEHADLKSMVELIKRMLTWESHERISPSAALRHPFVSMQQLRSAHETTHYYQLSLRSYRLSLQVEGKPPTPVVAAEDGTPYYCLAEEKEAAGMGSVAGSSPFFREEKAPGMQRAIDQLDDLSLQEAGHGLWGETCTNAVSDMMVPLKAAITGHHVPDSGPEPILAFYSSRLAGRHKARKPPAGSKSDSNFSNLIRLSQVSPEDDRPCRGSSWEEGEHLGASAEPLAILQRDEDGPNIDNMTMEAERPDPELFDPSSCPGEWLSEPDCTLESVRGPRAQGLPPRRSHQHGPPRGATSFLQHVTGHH

[33] = test system: Mast/stem cell growth factor receptor Kit (Homo sapiens), P10721 [D816H]; details: Compound concentration 1000.0 nM
[34] = target: Serine/threonine-protein kinase STK11 (Homo sapiens) (UniProt Q15831); details: Compound concentration 1000.0 nM
[35] = target: Insulin receptor-related protein (Homo sapiens) (UniProt P14616); details: Compound concentration 1000.0 nM
[36] = test system: Proto-oncogene tyrosine-protein kinase receptor Ret (Homo sapiens), P07949 [V804L]; details: Compound concentration 1000.0 nM
[37] = target: Serine/threonine-protein kinase PRP4 homolog (Homo sapiens) (UniProt Q13523); details: Compound concentration 1000.0 nM
[38] = target: Hormonally up-regulated neu tumor-associated kinase (Homo sapiens) (UniProt P57058); details: Compound concentration 1000.0 nM
[39] = target: Calcium-dependent protein kinase 1 (Plasmodium falciparum) (UniProt P62344); details: Compound concentration 1000.0 nM
Calcium-dependent protein kinase 1 (Plasmodium falciparum), sequence (P62344 2-524 limits assumed): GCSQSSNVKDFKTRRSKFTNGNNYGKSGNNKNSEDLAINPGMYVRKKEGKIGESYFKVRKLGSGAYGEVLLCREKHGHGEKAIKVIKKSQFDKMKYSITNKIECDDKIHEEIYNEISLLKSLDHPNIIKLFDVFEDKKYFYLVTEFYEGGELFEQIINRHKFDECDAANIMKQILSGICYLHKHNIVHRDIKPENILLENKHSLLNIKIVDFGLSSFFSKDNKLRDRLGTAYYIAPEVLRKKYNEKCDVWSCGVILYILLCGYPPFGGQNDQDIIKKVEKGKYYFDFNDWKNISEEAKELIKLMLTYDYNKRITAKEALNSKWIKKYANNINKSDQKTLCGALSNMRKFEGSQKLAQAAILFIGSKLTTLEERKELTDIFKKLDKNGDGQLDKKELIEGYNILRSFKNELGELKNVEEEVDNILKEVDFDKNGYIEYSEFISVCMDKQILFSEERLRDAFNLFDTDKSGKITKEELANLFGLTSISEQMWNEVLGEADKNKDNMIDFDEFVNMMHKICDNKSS

[40] = target: Mitogen-activated protein kinase kinase kinase 10 (Homo sapiens) (UniProt Q02779); details: Compound concentration 1000.0 nM
[41] = target: Inhibitor of nuclear factor kappa-B kinase subunit beta (Homo sapiens) (UniProt O14920); details: Compound concentration 1000.0 nM
[42] = test system: Epidermal growth factor receptor (Homo sapiens), P00533 [G719S]; details: Compound concentration 1000.0 nM
[43] = target: Wee1-like protein kinase 2 (Homo sapiens) (UniProt P0C1S8); details: Compound concentration 1000.0 nM
[44] = target: Ephrin type-A receptor 6 (Homo sapiens) (UniProt Q9UF33); details: Compound concentration 1000.0 nM
[45] = target: Membrane-associated tyrosine- and threonine-specific cdc2-inhibitory kinase (Homo sapiens) (UniProt Q99640); details: Compound concentration 1000.0 nM

Death-associated protein kinase 2 (Homo sapiens), sequence (Q9UIK4 whole entry, looked up, canonical isoform): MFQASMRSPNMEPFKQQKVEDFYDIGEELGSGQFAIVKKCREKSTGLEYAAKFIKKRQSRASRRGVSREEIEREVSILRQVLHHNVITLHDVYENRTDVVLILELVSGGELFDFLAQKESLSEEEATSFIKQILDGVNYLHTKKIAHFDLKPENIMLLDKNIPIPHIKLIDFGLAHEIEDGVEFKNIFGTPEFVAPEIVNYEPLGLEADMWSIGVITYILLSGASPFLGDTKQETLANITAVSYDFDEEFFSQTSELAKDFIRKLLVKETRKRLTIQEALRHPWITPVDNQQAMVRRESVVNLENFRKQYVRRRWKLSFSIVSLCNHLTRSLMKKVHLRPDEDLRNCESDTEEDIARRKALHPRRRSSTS
Aurora kinase C (Homo sapiens), sequence (Q9UQB9 whole entry): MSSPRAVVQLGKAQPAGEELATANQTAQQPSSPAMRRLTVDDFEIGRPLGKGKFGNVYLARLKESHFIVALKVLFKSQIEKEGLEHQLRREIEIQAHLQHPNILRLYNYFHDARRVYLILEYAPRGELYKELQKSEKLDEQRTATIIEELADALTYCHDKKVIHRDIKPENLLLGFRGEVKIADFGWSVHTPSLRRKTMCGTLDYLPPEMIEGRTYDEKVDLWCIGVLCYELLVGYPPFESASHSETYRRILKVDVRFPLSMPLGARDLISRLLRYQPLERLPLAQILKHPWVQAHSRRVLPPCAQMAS

O=C(O)[C@@H]1[C@@H](Cn2nnc3ccccc3c2=O)CC[C@H]1C(=O)c1ccc(OCCC2CCOCC2)cc1 [BAY-694]
inactive: residual activity [1] 100% | residual activity [2] 99% | residual activity [3] 100% | residual activity [4] 62% | residual activity [5] 100% | residual activity [6] 100% | inhibition [7] 14% | residual activity [8] 100% | residual activity [9] 100% | residual activity [10] 100% | residual activity [11] 100% | residual activity [12] 100% | residual activity [13] 81% | residual activity [14] 100% | residual activity [15] 91% | residual activity [16] 92% | residual activity [17] 87% | residual activity [18] 100% | residual activity [19] 100% | residual activity [20] 97% | residual activity [21] 100% | inhibition [22] 4.76% | residual activity [23] 100% | residual activity [24] 90% | residual activity [25] 91% | residual activity [26] 88% | residual activity [27] 100% | residual activity [28] 93% | residual activity [29] 100% | residual activity [30] 100% | residual activity [31] 84% | residual activity [32] 100% | residual activity [33] 68% | residual activity [34] 94% | residual activity [35] 100% | residual activity [36] 94% | residual activity [37] 80% | residual activity [38] 100% | residual activity [39] 100% | residual activity [40] 100% | residual activity [41] 100% | residual activity [42] 88% | residual activity [43] 100% | residual activity [44] 97% | residual activity [45] 82%

O=C(O)[C@H]1[C@H](Cn2nnc3ccccc3c2=O)CC[C@@H]1C(=O)c1ccc(OCCC2CCOCC2)cc1 [BAY-7598]
inactive: residual activity [1] 79% | residual activity [2] 88% | residual activity [3] 100% | residual activity [4] 71% | residual activity [5] 99% | residual activity [6] 100% | inhibition [7] 4.82% | residual activity [8] 100% | residual activity [9] 100% | residual activity [10] 81% | residual activity [11] 100% | residual activity [12] 100% | residual activity [13] 84% | residual activity [14] 100% | residual activity [15] 96% | residual activity [16] 100% | residual activity [17] 76% | residual activity [18] 96% | residual activity [19] 82% | residual activity [20] 100% | residual activity [21] 100% | inhibition [22] 1.16% | residual activity [23] 100% | residual activity [24] 93% | residual activity [25] 100% | residual activity [26] 96% | residual activity [27] 89% | residual activity [28] 100% | residual activity [29] 94% | residual activity [30] 100% | residual activity [31] 100% | residual activity [32] 100% | residual activity [33] 80% | residual activity [34] 76% | residual activity [35] 81% | residual activity [36] 77% | residual activity [37] 67% | residual activity [38] 71% | residual activity [39] 100% | residual activity [40] 82% | residual activity [41] 100% | residual activity [42] 87% | residual activity [43] 100% | residual activity [44] 85% | residual activity [45] 96%
